Experimental data from patent US12180187B2, “1-phenyl-5-azinylpyrazolyl-3-oxyalkyl acids and their use for controlling unwanted plant growth” (BAYER AKTIENGESELLSCHAFT, priority 2019, dated 2024).

Columns and labels:
VIOTR [1] = assay: Post-emergence action at 320 g/ha against VIOTR; format: in vivo, Viola tricolor; conditions: visual rating about 3 weeks after treatment vs untreated controls
Summary of the method: (§1)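 Herbicidal effect is scored by eye about 3 weeks after a foliar spray and expressed as percent activity, with untreated plants as 0% and dead plants as 100%. Treatment is applied at the one-leaf stage of greenhouse-grown, soil-sown plants, at a water rate of 600 l/ha containing 0.5% additive.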

AVEFA = assay: Pre-emergence action at 320 g/ha against AVEFA; format: in vivo; conditions: visual scoring after about 3 weeks vs untreated controls; for pest or weed control at 320 g/ha: Avena fatua, 504 h
Summary of the method: (§2)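 Percent herbicidal activity was assessed by eye roughly three weeks post-application, comparing with untreated plants. Treatment consisted of applying formulated compound in water plus 0.5% additive to covering soil at 600 l/ha before emergence.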

ALOMY [2] = assay: Post-emergence action against ALOMY, 320 g/ha; format: in vivo, Alopecurus myosuroides; conditions: dosage 320 g/ha, visual rating about 3 weeks after treatment vs untreated controls (100% = plants died)
Summary of the method: as §1

ABUTH [3] = assay: Post-emergence action at 320 g/ha against ABUTH; format: in vivo, Abutilon theophrasti; conditions: visual rating about 3 weeks after treatment vs untreated controls
Summary of the method: as §1

VERPE = assay: Pre-emergence action at 320 g/ha against VERPE; format: in vivo, Veronica persica; conditions: visual scoring after about 3 weeks vs untreated controls; for pest or weed control at 320 g/ha: Veronica persica, 504 h
Summary of the method: as §2

MATIN = assay: Post-emergence action against MATIN, 1.28 kg/ha; format: in vivo, Tripleurospermum inodorum (Matricaria inodora); conditions: dosage 1280 g/ha, visual rating about 3 weeks after treatment vs untreated controls (100% = plants died)
Summary of the method: (§3)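 Visual rating against untreated plants about 3 weeks after spraying gives % activity, where 0% means like controls and 100% means plants died. Plants were treated post-emergence at the one-leaf stage with compound formulated as wettable powder or emulsion concentrate, applied at 600 L water/ha plus 0.5% additive.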

SETVI = assay: Post-emergence action against SETVI, 1.28 kg/ha; format: in vivo, Setaria viridis; conditions: dosage 1280 g/ha, visual rating about 3 weeks after treatment vs untreated controls
Summary of the method: as §3

ABUTH [4] = assay: Post-emergence action against ABUTH, 1.28 kg/ha; format: in vivo, Abutilon theophrasti; conditions: dosage 1280 g/ha, visual rating about 3 weeks after treatment vs untreated controls (100% = plants died)
Summary of the method: as §3

ECHCG = assay: Post-emergence action against ECHCG, 1.28 kg/ha; format: in vivo, Echinochloa crus-galli; conditions: dosage 1280 g/ha, visual rating about 3 weeks after treatment vs untreated controls
Summary of the method: as §3

LOLRI [5] = assay: Pre-emergence action against LOLRI, 1280 g/ha; format: in vivo, Lolium rigidum; conditions: visual scoring after about 3 weeks vs untreated controls, 100% = plants have died, 0% = like control plants; for pest or weed control at 1280 g/ha: Lolium rigidum, 504 h
Summary of the method: (§4)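 Percent herbicidal effect, judged by eye relative to untreated pots around 3 weeks after soil-surface treatment. Application: formulated compound in water, 600 L/ha, 0.5% additive, on soil over sown seeds; greenhouse.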

ALOMY [6] = assay: Post-emergence action against ALOMY, 1.28 kg/ha; format: in vivo, Alopecurus myosuroides; conditions: dosage 1280 g/ha, visual rating about 3 weeks after treatment vs untreated controls
Summary of the method: as §3

DIGSA [7] = assay: Post-emergence action against DIGSA, 1.28 kg/ha; format: in vivo, Digitaria sanguinalis; conditions: dosage 1280 g/ha, visual rating about 3 weeks after treatment vs untreated controls
Summary of the method: as §3

AMARE [8] = assay: Post-emergence action at 320 g/ha against AMARE; format: in vivo, Amaranthus retroflexus; conditions: visual rating about 3 weeks after treatment vs untreated controls; for pest or weed control at 320 g/ha: Amaranthus retroflexus, 504 h
Summary of the method: as §1

LOLRI [9] = assay: Post-emergence action against LOLRI, 1.28 kg/ha; format: in vivo, Lolium rigidum; conditions: dosage 1280 g/ha, visual rating about 3 weeks after treatment vs untreated controls
Summary of the method: as §3

AMARE [10] = assay: Post-emergence action against AMARE, 1.28 kg/ha; format: in vivo, Amaranthus retroflexus; conditions: dosage 1280 g/ha, visual rating about 3 weeks after treatment vs untreated controls (100% = plants died)
Summary of the method: as §3

VIOTR [11] = assay: Pre-emergence action at 320 g/ha against VIOTR; format: in vivo, Viola tricolor; conditions: dosage 320 g/ha; for pest or weed control at 320 g/ha: Viola tricolor, 504 h
Summary of the method: as §2

DIGSA [12] = assay: Pre-emergence action against DIGSA, 1280 g/ha; format: in vivo, Digitaria sanguinalis; conditions: visual scoring after about 3 weeks vs untreated controls, 100% = plants have died, 0% = like control plants
Summary of the method: as §4

Row | SMILES | Post-emergence action against VIOTR in % (VIOTR [1]) [%] | Pre-emergence action against AVEFA in % (AVEFA) [%] | Post-emergence action against ALOMY (ALOMY [2]) [%] | Post-emergence action against ABUTH in % (ABUTH [3]) [%] | Pre-emergence action against VERPE in % (VERPE) [%] | Post-emergence action against MATIN (MATIN) [%] | Post-emergence action against SETVI (SETVI) [%] | Post-emergence action against ABUTH (ABUTH [4]) [%] | Post-emergence action against ECHCG (ECHCG) [%] | Pre-emergence action against LOLRI (LOLRI [5]) [%] | Post-emergence action against ALOMY (ALOMY [6]) [%] | Post-emergence action against DIGSA (DIGSA [7]) [%] | Post-emergence action against AMARE in % (AMARE [8]) [%] | Post-emergence action against LOLRI (LOLRI [9]) [%] | Post-emergence action against AMARE (AMARE [10]) [%] | Pre-emergence action against VIOTR in % (VIOTR [11]) [%] | Pre-emergence action against DIGSA (DIGSA [12]) [%] | other results
1 | COC(=O)COc1nn(-c2ccc(F)cc2)c(-c2ccc(F)nc2)c1Br [VII-002] | 90 | 80 | 100 | 80 | 100 | 90 | 90 | 90 | 90 | 100 |  |  |  |  |  |  |  | 
2 | COC(=O)[C@@H](C)Oc1nn(-c2ccccc2F)c(-c2ccnc(F)c2)c1Br [VIII-006] |  | 80 | 100 |  |  | 100 | 90 |  | 90 | 100 | 100 | 90 | 80 | 100 | 100 | 100 | 100 | 
3 | CCC(Oc1nn(-c2ccccc2F)c(-c2ccc(F)nc2)c1Br)C(=O)OC (stereo not shown) [VII-029] | 100 |  | 100 | 80 | 100 |  |  |  | 100 | 100 | 100 | 100 |  | 100 | 90 | 100 | 100 | 
4 | C=CCNC(=O)COc1nn(-c2ccccc2F)c(-c2ccc(F)nc2)c1Br [Example X-001, N-Allyl-2-{[4-bromo-1-(2-fluorophenyl)-5-(6-fluoropyridin-3-yl)-1H-pyrazol-3-yl]oxy}acetamide] |  |  | 90 | 80 |  |  |  |  |  |  |  |  |  |  | 90 |  | 100 | pest or weed control at 320 g/ha (AVEFA): 90%; pest or weed control at 320 g/ha (VERPE): 80%; pest or weed control at 320 g/ha (AMARE [8]): 80%; pest or weed control at 320 g/ha (VIOTR [11]): 100%; pest or weed control at 1280 g/ha (LOLRI [5]): 100%
5 | COC(=O)[C@@H](C)Oc1nn(-c2cc(F)ccc2F)c(-c2cncc(F)c2)c1Br [VII-132] | 80 | 100 | 90 |  | 100 | 90 | 90 | 90 | 100 | 100 | 100 | 100 | 90 |  | 100 | 100 | 100 | 
6 | O=C(O)COc1nn(-c2ccccc2F)c(-c2ccnc(F)c2)c1Br [VIII-004] | 90 |  | 90 |  | 100 | 90 | 100 |  | 90 | 100 |  |  | 90 | 100 | 90 | 90 |  | 
7 | COC(=O)C(C)Oc1nn(-c2ccccc2)c(-c2ccc(F)nc2)c1Br (stereo not shown) [VII-014] | 90 | 90 | 90 |  | 100 |  |  |  | 90 | 100 | 100 |  | 90 | 90 | 90 | 100 | 100 | 
8 | O=C(O)COc1nn(-c2ccccc2F)c(-c2ccc(F)nc2)c1I [VII-037] | 80 | 90 | 100 |  | 100 | 90 | 90 | 90 | 90 | 100 | 100 | 90 |  | 90 | 90 | 100 | 100 | 
9 | CN(C)S(=O)(=O)NC(=O)COc1nn(-c2ccccc2F)c(-c2ccc(F)nc2)c1Br [Example X-005] | 80 | 100 | 90 |  | 100 | 100 | 90 | 90 | 100 | 100 | 100 |  | 80 | 100 | 100 | 100 | 100 | 
10 | COC(=O)COc1nn(-c2cc(F)ccc2F)c(-c2ccc(F)nc2)c1Br [VII-089] |  | 90 | 90 |  | 100 | 90 |  | 90 | 90 | 100 | 100 | 100 | 80 | 100 | 90 | 100 | 100 | 
11 | O=C(O)COc1nn(-c2ccccc2F)c(-c2cncnc2)c1Br [VI-007, {[4-Bromo-1-(2-fluorophenyl)-5-(pyrimidin-5-yl)-1H-pyrazol-3-yl]oxy}acetic Acid] |  |  |  | 90 |  | 90 | 90 |  |  |  | 90 | 100 |  |  |  |  | 100 | pest or weed control at 320 g/ha (VIOTR [1]; Viola tricolor, 504 h): 90%; pest or weed control at 320 g/ha (AVEFA): 90%; pest or weed control at 320 g/ha (VERPE): 100%; pest or weed control at 320 g/ha (AMARE [8]): 80%; pest or weed control at 320 g/ha (VIOTR [11]): 100%; pest or weed control at 1280 g/ha (ECHCG; Echinochloa crus-galli, 504 h): 100%; pest or weed control at 1280 g/ha (LOLRI [5]): 100%
